Laboratory results reported in PMC6584114, “Metabolism of IMM-H004 and Its Pharmacokinetic-Pharmacodynamic Analysis in Cerebral Ischemia/Reperfusion Injured Rats” (Frontiers in Pharmacology, 2019).

What was measured:
[1] = test system: rat liver microsomes (RLMs), UGT; assay: Kinetics of IMM-H004G formation (glucuronidation) in UDPGA-supplemented rat liver microsomes; type: in vitro ADME; conditions: substrate IMM-H004
Procedure: (§1) To explore glucuronidation difference of IMM-H004 between humans and rats, the kinetics of IMM-H004G formation in UDPGA-supplemented HLMs and RLMs were determined. The incubation mixtures consisted of HLMs or RLMs (0.025 mg protein/ml), alamethicin (50 μg/mg protein), IMM-H004 (0.5–2,500 μM), and UDPGA (5 mM) in a final volume of 0.2 ml Tris-HCl buffer (50 mM, pH 7.4) containing 5 mM MgCl2. HLM or RLM was preincubated with alamethicin on ice for 15 min. The reaction was incubated at 37°C for 10 min and quenched by adding 200 μL of ice-cold acetonitrile containing IS (100 ng/ml). After vortex-mixing and centrifugation, IMM-H004G in the supernatant was analyzed by LC-MS/MS.
(§2) The LC-MS/MS system consisted of Shimadzu 30A UPLC and API 4000 triple quadruple mass spectrometer (AB SCIEX, USA). Data acquisition and analysis were accomplished using Analyst 1.5.2 software. The analytes and IS were chromatographed by injection of 1 μL sample. The mobile phases consisted of solvent A (0.5% formic acid in water) and solvent B (0.5% formic acid in methanol) at a flow rate of 0.3 ml/min on an Eclipse Plus C18 column (2.1 mm × 50 mm, 3.5 μm, Agilent, USA), and the operating temperature was 40°C. […] The specific transitions monitored were 305→248 for IMM-H004, 291→234 for M1, 291→248 for M2, 481→305 for IMM-H004G, 385→305 for M4, and 260→183 for IS.

[2] = test system: human liver microsomes (HLMs), UGT; assay: Kinetics of IMM-H004G formation (glucuronidation) in UDPGA-supplemented human liver microsomes; type: in vitro ADME; conditions: substrate IMM-H004
Procedure: as §1, §2

[3] = Plasma pharmacokinetics in MCAO/R rats after iv IMM-H004 citrate; type: in vivo; conditions: rat, iv IMM-H004 citrate 10 mg/kg
Procedure: The plasma pharmacokinetics (PK) and pharmacodynamics (PD) of IMM-H004 and IMM-H004G were investigated in a cerebral ischemia-reperfusion rat model produced by middle cerebral artery occlusion/reperfusion (MCAO/R) after iv administration of IMM-H004. In brief, rats underwent a 1-h MCAO and then received IMM-H004 citrate (10 mg/kg, dissolved in saline to yield a concentration of 2 mg/ml) immediately after reperfusion, an effective dosing time as reported ([Zuo et al., 2015]; [Yang et al., 2017]). For sham surgery, all the arteries were exposed for the surgical period, but the filament was not inserted into the MCA. Blood samples were collected through external jugular vein cannula into heparinized tubes at 0.033, 0.167, 0.5, 1, 2, 4, 6, 8, 12, 24, 36, and 48 h postdose for IMM-H004 and IMM-H004G detection (50 μL of blood at each time point) and at 0.5, 1, 2, 4, 7, and 10 h postdose for malondialdehyde (MDA) detection (80 μL of blood at each time point). Plasma was immediately separated by centrifugation at 900×g for 5 min. Plasma concentrations of IMM-H004 and IMM-H004G in ischemia-reperfusion rats were determined by LC-MS/MS analysis. The PK parameters were calculated by noncompartmental analysis using WinNonlin Version 6.1 (Pharsight, Mountain View, CA). Plasma MDA concentrations in ischemia-reperfusion and sham rats within 24 h were estimated by enzyme-linked immunosorbent assay.
(§3) The LC-MS/MS system consisted of Shimadzu 30A UPLC and API 4000 triple quadruple mass spectrometer (AB SCIEX, USA). Data acquisition and analysis were accomplished using Analyst 1.5.2 software. The analytes and IS were chromatographed by injection of 1 μL sample. The mobile phases consisted of solvent A (0.5% formic acid in water) and solvent B (0.5% formic acid in methanol) at a flow rate of 0.3 ml/min on an Eclipse Plus C18 column (2.1 mm × 50 mm, 3.5 μm, Agilent, USA), and the operating temperature was 40°C. The elution condition was 10% solvent B for 0.7 min, ascending to 98% B in 2.3 min, holding for 3.0 min and reequilibrating to 10% B within 0.1 min and maintained for 2.4 min (Jiang JW, 2018). The specific transitions monitored were 305→248 for IMM-H004, 291→234 for M1, 291→248 for M2, 481→305 for IMM-H004G, 385→305 for M4, and 260→183 for IS.

[4] = Excretion in rat urine, bile and feces after iv IMM-H004 citrate; type: in vivo; conditions: iv IMM-H004 citrate 6 mg/kg
Procedure: After intravenous (iv) injection with IMM-H004 citrate (6 mg/kg, dissolved in saline to yield a concentration of 1.2 mg/ml), rats were housed individually in metabolic cages to allow separate collection of urine and feces until 72 h postdose. Additional rats were bile cannulated under light ether anesthesia. Each rat was housed individually in a metabolic cage and allowed to recover from anesthesia for 2 to 3 h. Then bile duct cannulated rats were iv injected with IMM-H004 citrate (6 mg/kg, dissolved in saline to yield a concentration of 1.2 mg/ml), bile samples were collected until 24 h postdose.
Feces samples were homogenized in 10-fold solvent of water and methanol (1:1) and diluted 10-fold in water. Bile and urine samples were diluted 100-fold in water. The concentrations of IMM-H004, M1, M2, and IMM-H004G in diluted bile, urine, and feces samples were determined by LC-MS/MS.
as §3

MCAO/R rats = assay: Neuroprotection in transient MCAO/R rats (infarct volume, neurological score); type: in vivo, rat; conditions: 10 mg/kg iv after reperfusion, 24 h, vs model
From the text: Transient MCAO/R was applied to compare the neuroprotection of IMM-H004 and IMM-H004G. Rats were fasted overnight with free access to water and randomly assigned to different groups. Rats were anesthetized with a mixture of 5% isoflurane and 95% oxygen and maintained with a mixture of 3% isoflurane and 97% oxygen during the surgical procedure. A 4-0 nylon thread, the tip of which was burned (diameter 0.36 mm), was inserted into the right internal carotid artery and advanced until the origin of the right MCA was occluded. After 60 min of the occlusion, the thread was withdrawn to allow reperfusion, and then the rats were returned to the chamber. Saline or edaravone at dose of 6 mg/kg or IMM-H004 citrate and IMM-H004G at dose of 10 mg/kg (dissolved in saline to yield a concentration of 2 mg/ml) were administered by intravenous injection immediately after reperfusion.
The rats were assessed for neurologic deficits at 24 h after reperfusion according to Zea Longa’s five-point scale. […] The animals without symptoms of neurological impairment or dying after the surgery were rejected. All animals were killed 24 h after reperfusion. Brains of the animals were removed and cut into 2 mm-thick slices, for a total of six slices per animal. The slices were immersed in a 2% solution of 2,3,5-triphenyltetrazolium chloride in phosphate buffered saline at 37°C for 20 min and then fixed in 4% formaldehyde overnight. Images of the slices were obtained with a scanner and a computer. The infarct area and the total area were calculated by tracing the areas on the computer screen with Image J. The percentage of the infarct volume was expressed as the infarct volumes (white parts)/the whole volume of the cortex.

[5] = design: method as in Jiang et al., 2018; conditions: rat brain; ref Jiang et al., 2018; cited from earlier work

AUC(0-inf) [3]: 1640 ng·h/mL
AUC(0-t) [3]: 1640 ng·h/mL
Cmax [3]: 7460 ng/mL
MRT last ([3]; read-out: MRT(0-t)): 10.8 ± 0.6 min
MRT inf ([3]; read-out: MRT(0-∞)): 11.4 ± 1.2 min
half-life ([3]; read-out: t 1/2β (converted)): 25.2 ± 1.8 min
Tmax ([3]; iv, 10 mg/kg, read-out: T max): 1.8 min
recovery of IMM-H004G and IMM-H004 in bile ([4]; bile duct cannulated rats, until 24 h): 76.1 % of intake
IMM-H004 in fecal specimens ([4]; rat feces, until 72 h): 18 % of the dose
SMILES: COc1cc(O)cc2oc(=O)c(N3CCN(C)CC3)c(C)c12 [IMM-H004, 7-hydroxy-5-methoxy-4-methyl-3-(4-methylpiperazin-1-yl)-coumarin]
K m of IMM-H004G formation (glucuronidation) [1]: 9.5 µM
V max of IMM-H004G formation (glucuronidation) [1]: 5.04 nmol/min/mg protein
K m of IMM-H004G formation (glucuronidation) [2]: 119.3 µM
V max of IMM-H004G formation (glucuronidation) [2]: 3.25 nmol/min/mg protein
infarct volume (MCAO/R rats): markedly reduced (p < 0.01)
neurological test score (MCAO/R rats): significant improvement (p < 0.01)
T max (crossing the blood–brain barrier) [5]: 12.6 min
